Experimental data taken from PubChem BioAssay (NCI).
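Step 1: Grow cells in 96-well plates. Step 2: Expose to compound for 48 hours at 5 concentrations. Step 3: Interpolate endpoints linearly; if unreached, use highest concentration. Abbreviation: GI50, concentration required for 50% inhibition of growth. TGI: total growth inhibition.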

Tests used:
Assay in all cases: NCI tumour cell line growth inhibition, 48 h
[1] = system: UACC-257 melanoma
[2] = system: RXF 393 renal
[3] = system: 786-0 renal
[4] = system: SK-MEL-2 melanoma
[5] = system: LOX IMVI melanoma
[6] = system: NCI/ADR-RES ovarian
[7] = system: HOP-62 NSCLC
[8] = system: SF-539 CNS
[9] = system: OVCAR-5 ovarian
[10] = system: BT-549 breast
[11] = system: UO-31 renal

COc1ccc2[nH]c3c([N+](=O)[O-])ccc(Cl)c3c(=O)c2c1
TGI [1]: 16.5 µM | TGI [2]: 32.2 µM | TGI [3]: 33.7 µM | TGI [4]: 58.5 µM | TGI [5]: 34.5 µM | TGI [6]: > 71.2 µM | TGI [7]: 73.6 µM | TGI [8]: 34.2 µM | TGI [9]: > 58 µM | TGI [10]: 32.1 µM | TGI [11]: 35.5 µM

O=Nc1ccc(O)c2ncccc12
TGI [1]: 19.4 µM | TGI [2]: 5.61 µM | TGI [3]: 14.7 µM | TGI [4]: 6.39 µM | TGI [5]: 18.6 µM | TGI [6]: 18.3 µM | TGI [7]: 15 µM | TGI [8]: 4.96 µM | TGI [9]: 32.5 µM | TGI [10]: 23 µM | TGI [11]: 13.5 µM

CCN=C=NCCCN(C)C
TGI [1]: > 100 µM | TGI [2]: > 100 µM | TGI [3]: > 100 µM | TGI [4]: > 100 µM | TGI [5]: > 100 µM | TGI [6]: > 100 µM | TGI [7]: > 100 µM | TGI [8]: > 100 µM | TGI [9]: > 100 µM | TGI [10]: > 100 µM | TGI [11]: > 100 µM

C/C1=N\NC(=O)c2ccccc2C(=O)N/N=C(\C)c2cccc1n2.O=[N+]([O-])[O-].[Zn+2]
TGI [1]: > 100 µM | TGI [3]: > 100 µM | TGI [4]: > 100 µM | TGI [7]: > 100 µM | TGI [8]: > 100 µM | TGI [9]: > 100 µM | TGI [11]: > 100 µM

N=C(N)c1ccc(-c2ccc(-c3cncc4ccccc34)s2)cc1F
GI50 [2]: 1.75 µM | TGI [2]: 3.67 µM | GI50 [8]: 1.6 µM | TGI [8]: 3.04 µM | GI50 [9]: 1.6 µM | TGI [9]: 3.1 µM | GI50 [11]: 1.77 µM | TGI [11]: 3.41 µM

OC(Cc1ccccc1)(Cc1ccccc1)c1ccccc1
TGI [1]: 36.7 µM | TGI [2]: 29.3 µM | TGI [3]: 29.6 µM | TGI [4]: 29.6 µM | TGI [5]: 37.1 µM | TGI [6]: 71.6 µM | TGI [7]: 36.1 µM | TGI [9]: 38 µM | TGI [10]: 36.3 µM | TGI [11]: 32.4 µM

Nc1ccc(OCC(O)N2C(=O)c3ccccc3C2=O)cc1 (stereo not drawn)
TGI [1]: > 100 µM | TGI [5]: > 100 µM | TGI [6]: > 100 µM | TGI [7]: > 100 µM | TGI [9]: > 100 µM | TGI [11]: > 100 µM

O=S(=O)(O)c1cc(N=Nc2cc(S(=O)(=O)O)c3ccccc3c2O)ccc1/C=C/c1ccc(N=Nc2cc(S(=O)(=O)O)c3ccccc3c2O)cc1S(=O)(=O)O
TGI [1]: > 1000 µM | TGI [2]: > 1000 µM | TGI [3]: > 1000 µM | TGI [4]: > 620 µM | TGI [5]: > 461 µM | TGI [6]: > 1000 µM | TGI [7]: > 1000 µM | TGI [8]: > 667 µM | TGI [9]: 472 µM | TGI [10]: 552 µM | TGI [11]: > 527 µM

COc1cc(C(C)(C)C)cc(OC)c1C(O)(c1c(OC)cc(C(C)(C)C)cc1OC)c1c(OC)cc(C(C)(C)C)cc1OC
GI50 [1]: 0.268 µM | TGI [1]: 0.702 µM | GI50 [2]: 0.324 µM | TGI [2]: 0.871 µM | GI50 [4]: 0.325 µM | TGI [4]: 0.692 µM | GI50 [5]: 0.357 µM | TGI [5]: 1.45 µM | GI50 [8]: 0.342 µM | TGI [8]: 1.22 µM | GI50 [9]: 0.327 µM | TGI [9]: 1.02 µM | GI50 [11]: 0.241 µM | TGI [11]: 0.745 µM

C=C(CN(C)C)C(=O)c1ccc(C)cc1C
TGI [1]: 24.8 µM | TGI [2]: 9.4 µM | TGI [3]: 12.5 µM | TGI [4]: 37 µM | TGI [5]: 15.2 µM | TGI [6]: 40.3 µM | TGI [7]: 47.5 µM | TGI [8]: 30 µM | TGI [9]: 31.1 µM | TGI [10]: 12.7 µM | TGI [11]: 22.3 µM

Cc1ccc(P(c2ccc(C)cc2)c2ccc(C)cc2)cc1
TGI [1]: 59.3 µM | TGI [2]: 30 µM | TGI [4]: 57.9 µM | TGI [5]: 30.4 µM | TGI [6]: > 100 µM | TGI [8]: 37.7 µM | TGI [9]: 61.1 µM | TGI [10]: > 100 µM | TGI [11]: 4.54 µM

CC(C)(C)C1(c2ccc(C3(c4ccccc4)Oc4ccccc4S3)[nH]2)Oc2ccccc2S1 (stereo not drawn)
TGI [1]: > 100 µM | TGI [2]: > 100 µM | TGI [4]: > 100 µM | TGI [5]: > 100 µM | TGI [7]: > 100 µM | TGI [8]: > 100 µM | TGI [9]: > 100 µM | TGI [11]: > 100 µM

O=C(O)CC(C(=O)O)C1c2ccccc2-c2ccccc21 (stereo not drawn)
TGI [1]: > 100 µM | TGI [2]: > 100 µM | TGI [3]: > 100 µM | TGI [4]: > 100 µM | TGI [5]: > 100 µM | TGI [6]: > 100 µM | TGI [7]: > 100 µM | TGI [10]: > 100 µM | TGI [11]: > 100 µM

COC1/C=C\OC2(C)Oc3c(C)c(O)c4c(O)c(c(/C=N\OCCCc5ccccc5)c(O)c4c3C2=O)NC(=O)/C(C)=C\C=C/C(C)C(O)C(C)C(O)C(C)C(OC(C)=O)C1C (stereo not drawn)
TGI [1]: 18.6 µM | TGI [2]: 6.92 µM | TGI [3]: 9.81 µM | TGI [4]: 5.35 µM | TGI [5]: 10.2 µM | TGI [6]: 13.4 µM | TGI [7]: 6.75 µM | TGI [8]: 7.3 µM | TGI [9]: 20.4 µM

c1ccc(-n2cnnc2-c2nsc3ccccc23)cc1
TGI [1]: > 100 µM | TGI [2]: > 100 µM | TGI [4]: > 100 µM | TGI [5]: > 100 µM | TGI [7]: > 100 µM | TGI [8]: > 100 µM | TGI [9]: > 100 µM | TGI [11]: > 100 µM

Nc1cc(S(=O)(=O)O)cc2cc(S(=O)(=O)O)c(N=Nc3ccc(-c4ccc(N=Nc5c(S(=O)(=O)O)cc6cc(S(=O)(=O)O)cc(N)c6c5O)cc4)cc3)c(O)c12
TGI [1]: > 100 µM | TGI [2]: > 100 µM | TGI [4]: > 100 µM | TGI [5]: > 100 µM | TGI [6]: > 100 µM | TGI [7]: > 100 µM | TGI [8]: > 100 µM | TGI [9]: > 100 µM | TGI [11]: > 100 µM

O=[N+]([O-])c1ccc(/C=N\Nc2ccc([N+](=O)[O-])cn2)cc1
TGI [1]: > 100 µM | TGI [2]: > 100 µM | TGI [3]: > 100 µM | TGI [4]: > 100 µM | TGI [6]: > 100 µM | TGI [7]: > 100 µM | TGI [8]: 82.8 µM | TGI [9]: > 100 µM | TGI [10]: > 100 µM | TGI [11]: > 100 µM

C=C(C)[C@@H]1CC[C@]2(C(=O)Nc3ccccn3)CC[C@]3(C)[C@H](CC[C@@H]4[C@@]5(C)CCCNC(C)(C)[C@@H]5CC[C@]43C)[C@@H]12
GI50 [2]: 1.79 µM | TGI [2]: 3.27 µM | GI50 [6]: 1.93 µM | TGI [6]: 4.14 µM | GI50 [9]: 1.92 µM | TGI [9]: 3.89 µM | GI50 [11]: 1.44 µM | TGI [11]: 2.8 µM

CCN(CC)C(=S)SC(=S)N(CC)CC
TGI [1]: > 100 µM | TGI [2]: > 100 µM | TGI [3]: 56.3 µM | TGI [4]: > 100 µM | TGI [5]: 58.9 µM | TGI [6]: > 100 µM | TGI [7]: > 100 µM | TGI [8]: > 100 µM | TGI [9]: > 100 µM | TGI [10]: 77.4 µM | TGI [11]: > 76.3 µM

Nc1nc(N)c2ncn(-c3ccc(Cl)c(Cl)c3)c2n1
TGI [1]: 57.9 µM | TGI [2]: 50.8 µM | TGI [3]: 27.5 µM | TGI [4]: 28 µM | TGI [6]: > 100 µM | TGI [7]: 87.7 µM | TGI [8]: 67.6 µM | TGI [9]: > 100 µM | TGI [10]: 72.6 µM | TGI [11]: 59.2 µM

C=C(C)C(=O)OC1C(C(C)CCCO)=C(CO)CC2OC(=O)C(=C)C21 (stereo not drawn)
TGI [1]: 39.1 µM | TGI [2]: 27.2 µM | TGI [3]: 25.9 µM | TGI [4]: 61.7 µM | TGI [5]: 24.5 µM | TGI [6]: > 100 µM | TGI [7]: > 100 µM | TGI [8]: 58.9 µM | TGI [9]: 54.3 µM | TGI [10]: 34.7 µM

C=C(C)C1CC2=C(O1)C(=O)c1ccccc1C2=O (stereo not drawn)
TGI [1]: 26.2 µM | TGI [2]: 33 µM | TGI [5]: > 100 µM | TGI [7]: 35.2 µM | TGI [8]: 33.7 µM

COc1ccc(-c2nn(-c3ccc(NC(=O)Nc4ccc(Cl)c(Cl)c4)cc3)cc2-c2ccncc2)cc1Cl
GI50 [1]: 3.14 µM | TGI [1]: 11.6 µM | GI50 [2]: 0.862 µM | TGI [2]: 2.89 µM | GI50 [4]: 2.02 µM | TGI [4]: 4.76 µM | GI50 [5]: 2.24 µM | TGI [5]: 10.4 µM | GI50 [6]: 2.06 µM | TGI [6]: > 100 µM | GI50 [7]: 3.73 µM | TGI [7]: > 100 µM | GI50 [8]: 2.82 µM | TGI [8]: > 100 µM | GI50 [9]: 2.8 µM | TGI [9]: > 100 µM | GI50 [11]: 1.51 µM | TGI [11]: > 100 µM

CC(C)=CCc1c(O)ccc2c1OC1c3ccc(O)c(CC=C(C)C)c3OCC21 (stereo not drawn)
TGI [1]: 29 µM | TGI [2]: 22.1 µM | TGI [4]: 34.3 µM | TGI [5]: 22.3 µM | TGI [6]: 32.2 µM | TGI [7]: 23.9 µM | TGI [8]: 23.9 µM | TGI [9]: 27.1 µM | TGI [11]: 24 µM
